Reference: US10610863B2, “Automatic microfluidic system for antibiotic susceptibility testing and method of operating thereof” (NATIONAL TSING HUA UNIVERSITY, priority 2016, dated 2020)
≈ marks a conversion by molar mass, not a printed value.

Assays:
E. gallinarum (vanC1) [1] = assay: E-Test MIC, vancomycin-resistant Enterococcus vanC1 (Test 4); assay type: cell-based; conditions: incubation time 24 hours
Protocol: (§1) In Test 4, the antibiotic solution, the dilution mode and the operation of the microfluidic system are the as Test 1. However, a bacterial suspension to be tested of Test 4 is the bacterial suspension containing E. gallinarum (vancomycin-resistant Enterococcus). In particular, a genotype of the vancomycin-resistant Enterococcus in Test 4 is vanC1, and a minimum inhibitory concentration thereof is determined by the conventional method (E-Test®) to be 3 μg/mL. The incubation time and the determined minimum inhibitory concentration of E. gallinarum (vanC1) in Test 4 are listed in Table 1.

E. faecium (vanB) [2] = assay: E-Test MIC, vancomycin-resistant Enterococcus vanB (Test 3); assay type: cell-based; conditions: incubation time 24 hours
Protocol: as §1, with “3,” for “4,”, “3” for “4”, “faecium” for “gallinarum”, “vanB,” for “vanC1,”, “8” for “3”, “μg/mL.” for “μg/mL. The incubation time and the determined minimum inhibitory concentration of E. gallinarum (vanC1) in Test 4 are listed in Table 1.”

[3] = system: standard strain Enterococcus 29212 (ATCC); assay: Microfluidic system of Embodiment 1 antibiotic susceptibility testing (Test 1); assay type: cell-based, E. faecalis; conditions: for MIC: Enterococcus
Excerpt: In Test 1, a standard strain Enterococcus 29212, which includes E. faecalis and is purchased from American type culture collection (ATCC), is designed as a bacterial suspension to be tested. […] In particular, the antibiotic solution of Test 1 is a vancomycin-containing solution.
As to the determination of the minimum inhibitory concentration, a quantitative dye can be added into each of the first reaction chamber 122, the second reaction chamber 124a, the second reaction chamber 124b, the second reaction chamber 124c, and the second reaction chamber 124d as mentioned above. After few minutes, an upright fluorescent microscope is applied for determining fluorescent staining results as shown in FIG. 8. In details, the fluorescent staining results of the first mixing solution and each of the second mixing solutions (that is, the concentration of the antibiotic solution is 0 μg/mL, 2 μg/mL, 4 μg/mL, 6 μg/mL and 8 μg/mL, respectively) are shown, separately, from FIG. 8 (a) to FIG. 8 (e).
Alternatively, a proper pH indicator, such as phenol red, also can be added to the broth as a determination method. In details, a pH-dependent colorimetric broth, which includes brain heart infusion (BHI) media supplemented with 1% glucose and 0.05% phenol red, and antibiotics, are loaded. Then, the standard strain Enterococcus 29212 is loaded as the bacteria suspension to be tested herein for the antibiotic susceptibility testing. […] In particular, incubation times from FIG. 9(a) to FIG. 9(f) are 0 hour, 4 hours, 10 hours, 20 hours, 23 hours, and 24 hours.
The pH-dependent colorimetric broth will be transformed into an acidic pH due to bacterial growth, and the phenol red can be visually observed through color change from red to yellow.

E. gallinarum (vanC1) [4] = assay: Microfluidic system of Embodiment 1 antibiotic susceptibility testing (Test 4); assay type: cell-based; conditions: Enterococcus gallinarum, incubation time 16 hours
Protocol: (§2) Briefly, five different concentrations of antibiotic solutions (0 μg/mL, 2 μg/mL, 4 μg/mL, 6 μg/mL, and 8 μg/mL) are prepared, separately, by the microfluidic system of Embodiment 1 of the present disclosure with the proportional dilution mode. Then, the antibiotic solutions are mixed with the bacteria suspensions at a final concentration of 5×10^5 CFU/mL. The determination of the minimum inhibitory concentration is read after incubation at 37° C. for 24 hours.
(§3) Alternatively, a proper pH indicator, such as phenol red, also can be added to the broth as a determination method. In details, a pH-dependent colorimetric broth, which includes brain heart infusion (BHI) media supplemented with 1% glucose and 0.05% phenol red, and antibiotics, are loaded. Then, the standard strain Enterococcus 29212 is loaded as the bacteria suspension to be tested herein for the antibiotic susceptibility testing. […]
as §1, with “However, a bacterial suspension to be tested of Test 4 is the bacterial suspension containing E. gallinarum (vancomycin-resistant Enterococcus).” left out

E. casseliflavus (vanC2) [5] = assay: E-Test MIC, vancomycin-resistant Enterococcus vanC2 (Test 5); assay type: cell-based; conditions: 24 h, read-out: MIC (E-test)
Protocol: (§4) In Test 5, the antibiotic solution, the dilution mode and the operation of the microfluidic system are the as Test 1. However, a bacterial suspension to be tested of Test 5 is the bacterial suspension containing E. casseliflavus (vancomycin-resistant Enterococcus). In particular, a genotype of the vancomycin-resistant Enterococcus in Test 4 is vanC2, and a minimum inhibitory concentration thereof is determined by the conventional method (E-Test®) to be 4 μg/mL. The incubation time and the determined minimum inhibitory concentration of E. casseliflavus (vanC2) in Test 5 are listed in Table 1.

E. faecium (vanB) [6] = assay: Microfluidic system of Embodiment 1 antibiotic susceptibility testing (Test 3); assay type: cell-based; conditions: Enterococcus faecium, incubation time 19 hours
Protocol: as §2
as §3, with “testing. Please refer to FIG. 9, which is colorimetric results of the antibiotic susceptibility testing of the standard strain Enterococcus 29212 diluted by the microfluidic chip of FIG. 1.” for “testing.”
(§5) In Test 3, the antibiotic solution, the dilution mode and the operation of the microfluidic system are the as Test 1. […] In particular, a genotype of the vancomycin-resistant Enterococcus in Test 3 is vanB, and a minimum inhibitory concentration thereof is determined by the conventional method (E-Test®) to be 8 μg/mL.

[7] = system: vancomycin-intermediate Staphylococcus aureus (VISA); assay: Microfluidic system of Embodiment 2 combination susceptibility testing (Test 6); assay type: cell-based; conditions: for minimum inhibitory concentration alone (denominator of the FIC equation): antibiotic alone; for minimum inhibitory concentration in combination (vancomycin + ceftazidime): colorimetric, 24 hours of incubation at 37° C.
Protocol: In Test 6, vancomycin-intermediate Staphylococcus aureus (VISA) is designed as a bacterial suspension to be tested, and two antibiotic solutions, that is, vancomycin and ceftazidime, with different concentrations are prepared. In details, the two antibiotic solutions are transported, separately, to each of the second reaction chambers 124a′, 124b′, 124c′, 124d′, 124e′, 124f′, 124g′, 124h′, 124i′, 124j′, 124k′ to mix with the broth and the bacterial suspension to be tested. Then, concentrations of vancomycin of the second reaction chambers 124a′, 124b′, 124c′, 124d′, 124e′, 124f′, 124g′, 124h′, 124i′, 124j′, 124k′ are 4 μg/mL, 6 μg/mL, 4 μg/mL, 4 μg/mL, 4 μg/mL, 0 μg/mL, 6 μg/mL, 6 μg/mL, 2 μg/mL, 2 μg/mL and 2 μg/mL, respectively. Furthermore, concentrations of ceftazidime of the second reaction chambers 124a′, 124b′, 124c′, 124d′, 124e′, 124f′, 124g′, 124h′, 124i′, 124j′, 124k′ are 2 μg/mL, 2 μg/mL, 4 μg/mL, 6 μg/mL, 0 μg/mL, 4 μg/mL, 6 μg/mL, 4 μg/mL, 6 μg/mL, 4 μg/mL and 2 μg/mL, respectively. In addition, a proper pH indicator, such as phenol red, is added to the broth in Test 6. After incubation at 37° C. for 24 hours, results can be visually observed.
In particular, incubation times from FIG. 10(a) to FIG. 10(d) are 0 hour, 10 hours, 17 hours and 24 hours.
Then, a fractional inhibitory concentration index of the two antibiotic solutions for the vancomycin-intermediate Staphylococcus aureus can be derived from the following equation: FICindex=FICA+FICB. FICA is calculated as a quotient between the minimum inhibitory concentration of vancomycin in combination and the minimum inhibitory concentration of vancomycin alone, and FICB is calculated as a quotient between the minimum inhibitory concentration of ceftazidime in combination and the minimum inhibitory concentration of ceftazidime alone. In particular, the combination can be determined as synergic when the fractional inhibitory concentration index is ≤0.5, as antagonistic when the fractional inhibitory concentration index is >4. The results between synergy and antagonistic tendency are defined as additive or indifferent.

[8] = system: standard strain Enterococcus 29212 (ATCC); assay: E-Test MIC, standard strain Enterococcus 29212 (Test 1); assay type: cell-based, E. faecalis; conditions: incubation time 24 hours
Protocol: In Test 1, a standard strain Enterococcus 29212, which includes E. faecalis and is purchased from American type culture collection (ATCC), is designed as a bacterial suspension to be tested. The standard strain Enterococcus 29212 is susceptible Enterococcus, and a minimum inhibitory concentration of the standard strain Enterococcus 29212 detected by a clinical standard (i.e., E-Test®) is 4 μg/mL. In particular, the antibiotic solution of Test 1 is a vancomycin-containing solution.

E. faecium (vanA) [9] = assay: E-Test MIC, vancomycin-resistant Enterococcus vanA (Test 2); assay type: cell-based; conditions: incubation time 24 hours
Protocol: as §1, with “2,” for “4,”, “2” for “4”, “faecium” for “gallinarum”, “vanA,” for “vanC1,”, “32” for “3”, “μg/mL.” for “μg/mL. The incubation time and the determined minimum inhibitory concentration of E. gallinarum (vanC1) in Test 4 are listed in Table 1.”

E. faecium (vanA) [10] = assay: Microfluidic system of Embodiment 1 antibiotic susceptibility testing (Test 2); assay type: cell-based; conditions: Enterococcus faecium, incubation time 24 hours
Protocol: as §2
as §3, with “testing. Please refer to FIG. 9, which is colorimetric results of the antibiotic susceptibility testing of the standard strain Enterococcus 29212 diluted by the microfluidic chip of FIG. 1.” for “testing.”
as §5, with “2,” for “3,”, “2” for “3”, “vanA,” for “vanB,”, “32” for “8”

E. casseliflavus (vanC2) [11] = assay: Microfluidic system of Embodiment 1 antibiotic susceptibility testing (Test 5); assay type: cell-based; conditions: Enterococcus casseliflavus, incubation time 17 hours
Protocol: as §2, §3
as §4, with “However, a bacterial suspension to be tested of Test 5 is the bacterial suspension containing E. casseliflavus (vancomycin-resistant Enterococcus).” left out

| SMILES | MIC (E. gallinarum (vanC1) [1]) [µg/mL] | MIC (E. faecium (vanB) [2]) [µg/mL] | susceptibility of the strain according to the CLSI guidelines [3] | MIC ([3]; 37° C. for 24 hours, live bacteria green fluorescence, read-out: minimum inhibitory concentration by fluorescent staining) [µg/mL] | MIC ([3]; colorimetric (phenol red), incubation time 20 hours, read-out: MIC (Microfluidic system of Embodiment 1)) [µg/mL] | MIC (Microfluidic system of Embodiment 1) ([3]; colorimetric (phenol red), incubation time 20 hours) [µg/mL] | MIC (E. gallinarum (vanC1) [4]) [µg/mL] | MIC (E. casseliflavus (vanC2) [5]) [µg/mL] | MIC (E. faecium (vanB) [6]) [µg/mL] | minimum inhibitory concentration alone (denominator of the FIC equation) [7] | minimum inhibitory concentration in combination (vancomycin + ceftazidime) [7] [µg/mL] | MIC [8] [µg/mL] | MIC (E. faecium (vanA) [9]) [µg/mL] | MIC (E. faecium (vanA) [10]) [µg/mL] | MIC (E. casseliflavus (vanC2) [11]) [µg/mL] |
| --- | --- | --- | --- | --- | --- | --- | --- | --- | --- | --- | --- | --- | --- | --- | --- |
| CN[C@H](CC(C)C)C(=O)N[C@H]1C(=O)N[C@@H](CC(N)=O)C(=O)N[C@H]2C(=O)N[C@H]3C(=O)N[C@H](C(=O)N[C@H](C(=O)O)c4cc(O)cc(O)c4-c4cc3ccc4O)[C@H](O)c3ccc(c(Cl)c3)Oc3cc2cc(c3O[C@@H]2O[C@H](CO)[C@@H](O)[C@H](O)[C@H]2O[C@H]2C[C@](C)(N)[C@H](O)[C@H](C)O2)Oc2ccc(cc2Cl)[C@H]1O [vancomycin] | 3 (≈ 2.07 µM) | 8 (≈ 5.52 µM) | susceptible | 4 (≈ 2.76 µM) | 4 (≈ 2.76 µM) | 4 ± 0 | 4 (≈ 2.76 µM) | 4 (≈ 2.76 µM) | 4 (≈ 2.76 µM) | 3 | 4 | 4 (≈ 2.76 µM) | 32 (≈ 22.1 µM) | > 16 | 6 (≈ 4.14 µM) |
| CC(C)(O/N=C(\C(=O)N[C@@H]1C(=O)N2C(C(=O)[O-])=C(C[n+]3ccccc3)CS[C@H]12)c1csc(N)n1)C(=O)O [ceftazidime] |  |  |  |  |  |  |  |  |  | > 256 | 2 |  |  |  |  |
